First: O=C1CCc2c(OCC3(O)CCN(c4ccc(Cl)cc4F)CC3)ccc(Cl)c2N1
Second: O=C1CCc2c(OCC3(O)CCN(c4ccc(F)cc4F)CC3)ccc(Cl)c2N1
The melting point of the first is higher: 222.9 to 223 °C for the first, 200 to 200.3 °C for the second.

First: COCCOc1ccc(N2CCC(O)(COc3ccc(F)c4c3CCC(=O)N4)CC2)c(F)c1
Second: O=C1CCc2c(OCC3(O)CCN(c4ccc(OCCF)cc4F)CC3)ccc(F)c2N1
The melting point of the first is lower: 174 °C for the first, 186.5 to 186.7 °C for the second.

First: O=C1CCc2c(OCC3(O)CCN(c4cc(OC(F)(F)F)c(Cl)cc4F)CC3)ccc(F)c2N1
Second: Cc1cc(N2CCC(O)(COc3ccc(F)c4c3CCC(=O)N4)CC2)c(F)cc1Cl
The melting point of the first is lower: 208 °C for the first, 208.6 to 208.8 °C for the second.

Compared with `O=C1CCc2c(cccc2OCC2(O)CCN(c3ccc(Cl)cc3F)CC2)N1`, `O=C1CCc2c(OCC3(O)CCN(c4ccc(F)cc4F)CC3)ccc(F)c2N1` is lower in melting point: 231.6 to 232.9 °C for the first, 201.7 to 201.9 °C for the second.

Compared with `O=C1CCc2c(OCC3(O)CCN(c4ccc5sccc5c4)CC3)ccc(Cl)c2N1`, `N#Cc1ccc(N2CCC(O)(COc3ccc(F)c4c3CCC(=O)N4)CC2)cc1` is higher in melting point: 193.8 to 194.5 °C for the first, 216 °C for the second.

First: O=C1CCc2c(OCC3(O)CCN(c4ccc(OC(F)F)cc4F)CC3)ccc(F)c2N1
Second: CC(C)c1ccc(N2CCC(O)(COc3ccc(F)c4c3CCC(=O)N4)CC2)c(Cl)c1
The melting point of the first is higher: 201.6 to 202 °C for the first, 176.5 to 176.9 °C for the second.

First: O=C1CCc2c(OCC3(O)CCN(c4c(F)cc(F)cc4F)CC3)ccc(Cl)c2N1
Second: O=C1CCc2c(OCC3(O)CCN(c4c(F)cc(Cl)cc4Cl)CC3)ccc(F)c2N1
The melting point of the first is lower: 175.6 to 176.1 °C for the first, 238.8 to 239.1 °C for the second.

First: O=C1CCc2c(OCC3(O)CCN(c4ncc(C(F)(F)F)cc4Cl)CC3)ccc(Cl)c2N1
Second: CCOc1cnc(N2CCC(O)(COc3ccc(Cl)c4c3CCC(=O)N4)CC2)c(Cl)c1
The melting point of the first is higher: 193 to 194.7 °C for the first, 169 to 170.4 °C for the second.

First: O=C1CCc2c(OCC3(O)CCN(c4ccc(OCc5ccc(C(F)(F)F)cc5)cc4F)CC3)ccc(F)c2N1
Second: CCOc1cccc(N2CCC(O)(COc3ccc(F)c4c3CCC(=O)N4)CC2)c1
The melting point of the first is higher: 207.4 to 210.3 °C for the first, 128.1 °C for the second.

First: CC(C)c1cc(N2CCC(O)(COc3ccc(F)c4c3CCC(=O)N4)CC2)c(F)cc1Cl
Second: CCc1cc(N2CCC(O)(COc3ccc(Cl)c4c3CCC(=O)N4)CC2)c(F)cc1F
The melting point of the first is higher: 225.3 to 225.7 °C for the first, 178.8 to 178.9 °C for the second.

Compared with `Cc1ccc(N2CCC(O)(COc3ccc(F)c4c3CCC(=O)N4)CC2)nc1C`, `Cc1cc(Cl)cc(Cl)c1N1CCC(O)(COc2ccc(F)c3c2CCC(=O)N3)CC1` is higher in melting point: 197.9 to 199.6 °C for the first, 251.6 to 251.9 °C for the second.

First: CSc1ccc(N2CCC(O)(COc3ccc(F)c4c3CCC(=O)N4)CC2)c(Cl)c1
Second: CC(C)c1ccccc1N1CCC(O)(COc2ccc(F)c3c2CCC(=O)N3)CC1
The melting point of the first is higher: 207.4 to 207.6 °C for the first, 163 to 163.3 °C for the second.

First: O=C1CCc2c(OC[C@]3(O)CCN(c4ccccc4Cl)C[C@H]3O)ccc(F)c2N1
Second: O=C1CCc2c(OC[C@]3(O)CCN(c4ccccc4)C[C@H]3O)ccc(F)c2N1
The melting point of the first is lower: 161.3 to 161.4 °C for the first, 202.8 to 203.5 °C for the second.

First: O=C1CCc2c(OC[C@]3(O)CCN(c4ccc(F)cc4F)C[C@H]3O)ccc(F)c2N1
Second: O=C1CCc2c(OC[C@]3(O)CCN(c4nc5ccccc5[nH]4)C[C@H]3O)ccc(F)c2N1
The melting point of the first is lower: 175.2 to 176.1 °C for the first, 279 to 281 °C for the second.

Compared with `Cn1c(N2CC[C@@](O)(COc3ccc(F)c4c3CCC(=O)N4)[C@H](O)C2)nc2ccccc21`, `O=C1CCc2c(OCC3(O)CCN(c4ccccc4)CC3)ccc(F)c2N1` is higher in melting point: 138 to 147 °C for the first, 177 to 177.4 °C for the second.

First: NOC1(COc2ccc(F)c3c2CCC(=O)N3)CCN(c2ncc(Cl)cc2Cl)CC1
Second: O=C1CCc2c(OCC3(O)CCN(c4c(Cl)cc(Cl)cc4Cl)CC3)ccc(F)c2N1
The melting point of the first is lower: 147 to 149 °C for the first, 239.4 to 239.8 °C for the second.

Work on `CCOC(=O)O[C@@H]1CN(c2ccc(Cl)cc2F)CC[C@@]1(O)COc1ccc(F)c2c1CCC(=O)N2` yielded a melting point of 171 to 172 °C.

In the case of `O=c1ccc2c(OC[C@]3(O)CCN(c4ccc(Br)cc4F)C[C@H]3O)ccc(F)c2[nH]1`, the melting point is reported as 224.5 °C (dec.).

Source: patent publication US10464926B2, “Heterobicyclic compounds and their use for the treatment of tuberculosis” (OTSUKA PHARMACEUTICAL CO., LTD., priority 2014, dated 2019)
